Laboratory results: patent US10870876B2, “Method for detecting a presence or absence of at least one first zone of inhibition” (BIOMÉRIEUX, priority 2015, dated 2020)

Test system: Escherichia coli ATCC 35218
Test: Etest strip MIC, deposition of the sample in droplets along the strip
Assay type: cell-based

gentamicin
MIC (Table 2, droplet, ATCC 35218, 0.01 McF, 4 H): 1.3 µg/mL | MIC (Table 2, droplet, ATCC 35218, 0.01 McF, 5 H): 1.3 µg/mL | MIC (Table 2, droplet, ATCC 35218, 0.1 McF, 4 H): 2 µg/mL | MIC (Table 2, droplet/replicate 2, ATCC 35218, 0.5 McF, 4 H): 2 µg/mL
